Assay results taken from ChEMBL document CHEMBL1649268, “Comparative in vitro activity profile of oritavancin against recent gram-positive clinical isolates” (2009).

Legend:
Streptococcus pneumoniae [1] = experiment: Antimicrobial activity against penicillin-intermediate Streptococcus pneumoniae clinical isolates assessed as percent susceptible isolates by broth microdilution method; type: functional
Streptococcus [2] = experiment: Antimicrobial activity against Streptococcus Group F clinical isolates by broth microdilution method; type: functional
Streptococcus [3] = experiment: Antimicrobial activity against erythromycin-susceptible Streptococcus Group F clinical isolates by broth microdilution method; type: functional
Streptococcus pyogenes [4] = experiment: Antimicrobial activity against erythromycin-susceptible Streptococcus pyogenes clinical isolates assessed as percent susceptible isolates by broth microdilution method; type: functional
Streptococcus agalactiae [5] = experiment: Antimicrobial activity against Streptococcus agalactiae clinical isolates by broth microdilution method; type: functional
Streptococcus pneumoniae [6] = experiment: Antimicrobial activity against Streptococcus pneumoniae clinical isolates by broth microdilution method; type: functional
Streptococcus pneumoniae [7] = experiment: Antimicrobial activity against penicillin-resistant Streptococcus pneumoniae clinical isolates assessed as percent susceptible isolates by broth microdilution method; type: functional
[8] = Antimicrobial activity against erythromycin-susceptible Streptococcus Group C clinical isolates by broth microdilution method; type: functional; settings: Streptococcus sp. 'group C'
Enterococcus faecalis [9] = experiment: Antimicrobial activity against Enterococcus faecalis clinical isolates by broth microdilution method; type: functional
Streptococcus pneumoniae [10] = experiment: Antimicrobial activity against penicillin-susceptible Streptococcus pneumoniae clinical isolates assessed as percent susceptible isolates by broth microdilution method; type: functional
Enterococcus faecalis [11] = experiment: Antimicrobial activity against Enterococcus faecalis clinical isolates assessed as percent susceptible isolates by broth microdilution method; type: functional
Streptococcus pyogenes [12] = experiment: Antimicrobial activity against erythromycin-susceptible Streptococcus pyogenes clinical isolates by broth microdilution method; type: functional
Streptococcus pneumoniae [13] = experiment: Antimicrobial activity against penicillin-resistant Streptococcus pneumoniae clinical isolates by broth microdilution method; type: functional
Enterococcus faecalis [14] = experiment: Antimicrobial activity against vancomycin-susceptible Enterococcus faecalis clinical isolates by broth microdilution method; type: functional
Streptococcus agalactiae [15] = experiment: Antimicrobial activity against Streptococcus agalactiae clinical isolates assessed as percent susceptible isolates by broth microdilution method; type: functional
[16] = Antimicrobial activity against erythromycin-susceptible Streptococcus Group G clinical isolates by broth microdilution method; type: functional; settings: Streptococcus sp. 'group G'
[17] = Antimicrobial activity against erythromycin-susceptible Streptococcus Group G clinical isolates assessed as percent susceptible isolates by broth microdilution method; type: functional, Streptococcus sp. 'group G'
Enterococcus faecalis [18] = experiment: Antimicrobial activity against Enterococcus faecalis expressing VanA gene clinical isolates by broth microdilution method; type: functional
Streptococcus pneumoniae [19] = experiment: Antimicrobial activity against Streptococcus pneumoniae clinical isolates assessed as percent susceptible isolates by broth microdilution method; type: functional
[20] = Antimicrobial activity against erythromycin-nonsusceptible Streptococcus Group C clinical isolates by broth microdilution method; type: functional; settings: Streptococcus sp. 'group C'
[21] = Antimicrobial activity against Streptococcus Group C clinical isolates by broth microdilution method; type: functional; settings: Streptococcus sp. 'group C'
Streptococcus pneumoniae [22] = experiment: Antimicrobial activity against penicillin-intermediate Streptococcus pneumoniae clinical isolates assessed as resistant isolates by broth microdilution method; type: functional
[23] = Antimicrobial activity against Streptococcus Group G clinical isolates assessed as resistant isolates by broth microdilution method; type: functional, Streptococcus sp. 'group G'
[24] = Antimicrobial activity against erythromycin-susceptible Streptococcus Group C clinical isolates assessed as percent susceptible isolates by broth microdilution method; type: functional, Streptococcus sp. 'group C'
Streptococcus pyogenes [25] = experiment: Antimicrobial activity against Streptococcus pyogenes clinical isolates assessed as percent susceptible isolates by broth microdilution method; type: functional
[26] = Antimicrobial activity against Streptococcus Group G clinical isolates by broth microdilution method; type: functional; settings: Streptococcus sp. 'group G'
Streptococcus agalactiae [27] = experiment: Antimicrobial activity against erythromycin-nonsusceptible Streptococcus agalactiae clinical isolates by broth microdilution method; type: functional
Streptococcus pyogenes [28] = experiment: Antimicrobial activity against erythromycin-nonsusceptible Streptococcus pyogenes clinical isolates assessed as percent susceptible isolates by broth microdilution method; type: functional
Streptococcus agalactiae [29] = experiment: Antimicrobial activity against erythromycin-nonsusceptible Streptococcus agalactiae clinical isolates assessed as resistant isolates by broth microdilution method; type: functional
Streptococcus agalactiae [30] = experiment: Antimicrobial activity against Streptococcus agalactiae clinical isolates assessed as resistant isolates by broth microdilution method; type: functional
Enterococcus faecalis [31] = experiment: Antimicrobial activity against vancomycin-nonsusceptible Enterococcus faecalis clinical isolates by broth microdilution method; type: functional
Streptococcus pyogenes [32] = experiment: Antimicrobial activity against erythromycin-nonsusceptible Streptococcus pyogenes clinical isolates by broth microdilution method; type: functional
Streptococcus pneumoniae [33] = experiment: Antimicrobial activity against penicillin-intermediate Streptococcus pneumoniae clinical isolates by broth microdilution method; type: functional
[34] = Antimicrobial activity against erythromycin-nonsusceptible Streptococcus Group G clinical isolates by broth microdilution method; type: functional; settings: Streptococcus sp. 'group G'
Enterococcus faecium [35] = experiment: Antimicrobial activity against Enterococcus faecium expressing VanB gene clinical isolates assessed as percent susceptible isolates by broth microdilution method; type: functional
Streptococcus pneumoniae [36] = experiment: Antimicrobial activity against penicillin-susceptible Streptococcus pneumoniae clinical isolates by broth microdilution method; type: functional
Enterococcus faecalis [37] = experiment: Antimicrobial activity against Enterococcus faecalis expressing VanA gene clinical isolates assessed as resistant isolates by broth microdilution method; type: functional
Streptococcus agalactiae [38] = experiment: Antimicrobial activity against erythromycin-susceptible Streptococcus agalactiae clinical isolates assessed as percent susceptible isolates by broth microdilution method; type: functional
Streptococcus [39] = experiment: Antimicrobial activity against erythromycin-nonsusceptible Streptococcus Group F clinical isolates by broth microdilution method; type: functional
Enterococcus faecalis [40] = experiment: Antimicrobial activity against Enterococcus faecalis expressing VanB gene clinical isolates assessed as percent susceptible isolates by broth microdilution method; type: functional
Streptococcus agalactiae [41] = experiment: Antimicrobial activity against erythromycin-nonsusceptible Streptococcus agalactiae clinical isolates assessed as percent susceptible isolates by broth microdilution method; type: functional
Enterococcus faecium [42] = experiment: Antimicrobial activity against vancomycin-susceptible Enterococcus faecium clinical isolates by broth microdilution method; type: functional
Streptococcus pyogenes [43] = experiment: Antimicrobial activity against Streptococcus pyogenes clinical isolates by broth microdilution method; type: functional
Streptococcus agalactiae [44] = experiment: Antimicrobial activity against erythromycin-susceptible Streptococcus agalactiae clinical isolates assessed as resistant isolates by broth microdilution method; type: functional
Streptococcus pyogenes [45] = experiment: Antimicrobial activity against erythromycin-susceptible Streptococcus pyogenes clinical isolates assessed as resistant isolates by broth microdilution method; type: functional
Streptococcus agalactiae [46] = experiment: Antimicrobial activity against erythromycin-susceptible Streptococcus agalactiae clinical isolates by broth microdilution method; type: functional
Streptococcus pyogenes [47] = experiment: Antimicrobial activity against erythromycin-nonsusceptible Streptococcus pyogenes clinical isolates assessed as resistant isolates by broth microdilution method; type: functional

SMILES: C[C@H]1COc2c(N3CCN(C)CC3)c(F)cc3c(=O)c(C(=O)O)cn1c23.C[C@H]1COc2c(N3CCN(C)CC3)c(F)cc3c(=O)c(C(=O)O)cn1c23.O [LEVOFLOXACIN]
- Activity (Streptococcus pneumoniae [1]): 97.7%
- MIC90 (Streptococcus [2]): 0.5 µg/mL
- MIC90 (Streptococcus [3]): 0.5 µg/mL
- Activity (Streptococcus pyogenes [4]): 100%
- MIC90 (Streptococcus agalactiae [5]): 1 µg/mL
- MIC90 (Streptococcus pneumoniae [6]): 1 µg/mL
- Activity (Streptococcus pneumoniae [7]): 99.3%
- MIC90 [8]: 0.5 µg/mL
- MIC90 (Enterococcus faecalis [9]): > 16 µg/mL
- Activity (Streptococcus pneumoniae [10]): 99.5%
- Activity (Enterococcus faecalis [11]): 61.2%
- MIC90 (Streptococcus pyogenes [12]): 0.5 µg/mL
- MIC90 (Streptococcus pneumoniae [13]): 1 µg/mL
- MIC90 (Enterococcus faecalis [14]): > 16 µg/mL
- Activity (Streptococcus agalactiae [15]): 97.8%
- MIC90 [16]: 0.5 µg/mL
- Activity [17]: 100%
- MIC90 (Enterococcus faecalis [18]): > 16 µg/mL
- Activity (Streptococcus pneumoniae [19]): 99.1%
- MIC90 [20]: 0.5 µg/mL
- MIC90 [21]: 0.5 µg/mL
- Percent of isolates resistant (Streptococcus pneumoniae [22]): 2.3%
- Activity [23]: 0%
- Activity [24]: 100%
- Activity (Streptococcus pyogenes [25]): 99.9%
- MIC90 [26]: 0.5 µg/mL
- MIC90 (Streptococcus agalactiae [27]): 1 µg/mL
- Activity (Streptococcus pyogenes [28]): 99.2%
- Activity (Streptococcus agalactiae [29]): 4.1%
- Activity (Streptococcus agalactiae [30]): 2.2%
- MIC90 (Enterococcus faecalis [31]): > 16 µg/mL
- MIC90 (Streptococcus pyogenes [32]): 1 µg/mL
- MIC90 (Streptococcus pneumoniae [33]): 1 µg/mL
- MIC90 [34]: 0.5 µg/mL
- Activity (Enterococcus faecium [35]): 0%
- MIC90 (Streptococcus pneumoniae [36]): 1 µg/mL
- Activity (Enterococcus faecalis [37]): 100%
- Activity (Streptococcus agalactiae [38]): 98.6%
- MIC90 (Streptococcus [39]): 0.5 µg/mL
- Activity (Enterococcus faecalis [40]): 0%
- Activity (Streptococcus agalactiae [41]): 95.9%
- MIC90 (Enterococcus faecium [42]): > 16 µg/mL
- MIC90 (Streptococcus pyogenes [43]): 0.5 µg/mL
- Activity (Streptococcus agalactiae [44]): 1.4%
- Activity (Streptococcus pyogenes [45]): 0%
- MIC90 (Streptococcus agalactiae [46]): 1 µg/mL
- Activity (Streptococcus pyogenes [47]): 0.8%
